Source: patent US9018208B2, “Heterocycles as potassium channel modulators” (Icagen Inc., priority 2007, dated 2015)

Test system: SH-SY5Y M-currents (KCNQ2, KCNQ3 and KCNQ5)
Assay: SH-SY5Y native cell line FLIPR assay (voltage-sensitive dye DiBAC)
Format: cell-based, mouse neuroblastoma, rat glioma hybrid cell line
Details: FLIPR assay, SH-SY5Y native cell line; Table 2; read-out: SH-SY5Y EC50
Procedure, shortened: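 Response is peak DiBAC fluorescence change, normalised to the maximum from a positive control agent, sampled every 30 s over 25 min. Before compound addition, SH-SY5Y cells differentiated with PGE1 plus isomethylbutylxanthine were dye-loaded for 1 h in EBSS with […] DiBAC.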

First: CC(C)(C)CC(=O)Nc1nc2ccc(C(F)(F)F)cn2c1-c1ccc(OC(F)(F)F)cc1 [Compound 178, 3,3-dimethyl-N-(3-(4-(trifluoromethoxy)phenyl)-6-(trifluoromethyl)imidazo[1,2-a]pyridin-2-yl)butanamide]
Second: CC(C)(CO)CC(=O)Nc1nc2ccc(F)cn2c1-c1ccc(OC(F)(F)F)cc1 [Compound 192, N-(6-fluoro-3-(4-(trifluoromethoxy)phenyl)imidazo[1,2-a]pyridin-2-yl)-4-hydroxy-3,3-dimethylbutanamide]
The EC50 of the first is lower: < 0.5 µM for the first, 0.5 to 3 µM for the second.

`CC1(CC(=O)Nc2nc3ccc(F)cn3c2-c2ccc(F)cc2)CCCC1` [Compound 179, N-(6-fluoro-3-(4-fluorophenyl)imidazo[1,2-a]pyridin-2-yl)-2-(1-methylcyclopentyl)acetamide] and `CC1(CC(=O)Nc2nc3ccc(F)cn3c2-c2ccc(OC(F)(F)F)cc2)CCCC1` [Compound 193, N-(6-fluoro-3-(4-(trifluoromethoxy)phenyl)imidazo[1,2-a]pyridin-2-yl)-2-(1-methylcyclopentyl)acetamide] cannot be ordered by EC50: < 0.5 µM for the first, < 0.5 µM for the second.

`CC(C)(C)C(O)C(=O)Nc1nc2ccc(F)cn2c1-c1ccc(C(F)(F)F)cc1` (stereo not shown) [Compound 181, N-(6-fluoro-3-(4-(trifluoromethyl)phenyl)imidazo[1,2-a]pyridin-2-yl)-2-hydroxy-3,3-dimethylbutanamide] and `CC(C)C(C)C(=O)Nc1nc2ccc(F)cn2c1-c1ccc(C(F)(F)F)cc1` (stereo not shown) [Compound 184, N-(6-fluoro-3-(4-(trifluoromethyl)phenyl)imidazo[1,2-a]pyridin-2-yl)-2,3-dimethylbutanamide] fall in the same range of EC50: 0.5 to 3 µM for the first, 0.5 to 3 µM for the second.

`CC(C)(C)CC(=O)Nc1nc2ccc(F)cn2c1-c1cccc(OC(F)(F)F)c1` [Compound 182, N-(6-fluoro-3-(3-(trifluoromethoxy)phenyl)imidazo[1,2-a]pyridin-2-yl)-3,3 dimethylbutanamide] and `CC(C)(C)CC(=O)Nc1nc2ccc(F)cn2c1-c1ccc(C(F)(F)F)c(F)c1` [Compound 199, N-(6-fluoro-3-(3-fluoro-4-(trifluoromethyl)phenyl)imidazo[1,2-a]pyridin-2-yl)-3,3-dimethylbutanamide] cannot be ordered by EC50: < 0.5 µM for the first, < 0.5 µM for the second.

`O=C(Cc1ccc(F)cc1)Nc1nc2ccc(F)cn2c1-c1cccc(OC(F)(F)F)c1` [Compound 183, N-(6-fluoro-3-(3-(trifluoromethoxy)phenyl)imidazo[1,2-a]pyridin-2-yl)-2-(4-fluorophenyl) acetamide] and `O=C(Cc1ccc(F)cc1)Nc1nc2ccc(F)cn2c1-c1ccc(F)c(F)c1` [Compound 210, N-(3-(3,4-difluorophenyl)-6-fluoroimidazo[1,2-a]pyridin-2-yl)-2-(4-fluorophenyl)acetamide] cannot be ordered by EC50: < 0.5 µM for the first, < 0.5 µM for the second.

`O=C(CC1CCC1)Nc1nc2ccc(F)cn2c1-c1ccc(C(F)(F)F)cc1` [Compound 185, 2-cyclobutyl-N-(6-fluoro-3-(4-(trifluoromethyl)phenyl)imidazo[1,2-a]pyridin-2-yl)acetamide] and `O=C(CC1CCC1)Nc1nc2ccc(F)cn2c1-c1ccc(OC(F)(F)F)cc1` [Compound 194, 2-cyclobutyl-N-(6-fluoro-3-(4-(trifluoromethoxy)phenyl)imidazo[1,2-a]pyridin-2-yl)acetamide] cannot be ordered by EC50: < 0.5 µM for the first, < 0.5 µM for the second.

`Cc1ccc2nc(NC(=O)Cc3ccc(C(F)(F)F)cc3)c(-c3ccc(F)cc3)n2c1` [Compound 186, N-(3-(4-fluorophenyl)-6-methylimidazo[1,2-a]pyridin-2-yl)-2-(4-(trifluoromethyl)phenyl)acetamide] and `Cc1ccn2c(-c3ccc(F)cc3)c(NC(=O)Cc3ccc(C(F)(F)F)cc3)nc2c1` [Compound 187, N-(3-(4-fluorophenyl)-7-methylimidazo[1,2-a]pyridin-2-yl)-2-(4-(trifluoromethyl)phenyl)acetamide] cannot be ordered by EC50: < 0.5 µM for the first, < 0.5 µM for the second.

First: CC(C)(C)CCC(=O)Nc1nc2ccc(F)cn2c1-c1ccc(C(F)(F)F)cc1 [Compound 188, N-(6-fluoro-3-(4-(trifluoromethyl)phenyl)imidazo[1,2-a]pyridin-2-yl)-4,4-dimethylpentanamide]
Second: CC(C)(C)OCC(=O)Nc1nc2ccc(F)cn2c1-c1ccc(C(F)(F)F)cc1 [Compound 206, 2-tert-butoxy-N-(6-fluoro-3-(4-(trifluoromethyl)phenyl)imidazo[1,2-a]pyridin-2-yl)acetamide]
The EC50 of the first is lower: < 0.5 µM for the first, 3 to 10 µM for the second.

`CC(=O)OCC(C)(C)CC(=O)Nc1nc2ccc(F)cn2c1-c1ccc(C(F)(F)F)cc1` [Compound 189, 4-(6-fluoro-3-(4-(trifluoromethyl)phenyl)imidazo[1,2-a]pyridin-2-ylamino)-2,2-dimethyl-4-oxobutyl acetate] and `CC(=O)OCC(C)(C)CC(=O)Nc1nc2ccc(F)cn2c1-c1ccc(OC(F)(F)F)cc1` [Compound 191, 4-(6-fluoro-3-(4-(trifluoromethoxy)phenyl)imidazo[1,2-a]pyridin-2-ylamino)-2,2-dimethyl-4-oxobutyl acetate] fall in the same range of EC50: 3 to 10 µM for the first, 3 to 10 µM for the second.

First: CC(C)(CO)CC(=O)Nc1nc2ccc(F)cn2c1-c1ccc(C(F)(F)F)cc1 [Compound 190, N-(6-fluoro-3-(4-(trifluoromethyl)phenyl)imidazo[1,2-a]pyridin-2-yl)-4-hydroxy-3,3-dimethylbutanamide]
Second: CC(C)(C)NC(=O)Nc1nc2ccc(F)cn2c1-c1ccc(C(F)(F)F)cc1 [Compound 215, 1-tert-butyl-3-(6-fluoro-3-(4-(trifluoromethyl)phenyl)imidazo[1,2-a]pyridin-2-yl)urea]
The EC50 of the first is higher: 3 to 10 µM for the first, 0.5 to 3 µM for the second. The second is the more potent here.

First: CC(CC(=O)Nc1nc2ccc(F)cn2c1-c1ccc(OC(F)(F)F)cc1)C(F)(F)F (stereo not shown) [Compound 195, 4,4,4-trifluoro-N-(6-fluoro-3-(4-(trifluoromethoxy)phenyl)imidazo[1,2-a]pyridin-2-yl)-3-methylbutanamide]
Second: CC(C)(C)OCC(=O)Nc1nc2ccc(F)cn2c1-c1ccc(OC(F)(F)F)cc1 [Compound 208, 2-tert-butoxy-N-(6-fluoro-3-(4-(trifluoromethoxy)phenyl)imidazo[1,2-a]pyridin-2-yl)acetamide]
The EC50 of the first is lower: < 0.5 µM for the first, 3 to 10 µM for the second.

`CC(C)(C)CC(=O)Nc1nc2ccc(F)cn2c1-c1ccc(F)c(C(F)F)c1` [Compound 196, N-(3-(3-(difluoromethyl)-4-fluorophenyl)-6-fluoroimidazo[1,2-a]pyridin-2-yl)-3,3-dimethylbutanamide] and `CC(C)(C)CC(=O)Nc1nc2ccc(F)cn2c1-c1ccc(F)c(F)c1` [Compound 212, N-(3-(3,4-difluorophenyl)-6-fluoroimidazo[1,2-a]pyridin-2-yl)-3,3-dimethylbutanamide] cannot be ordered by EC50: < 0.5 µM for the first, < 0.5 µM for the second.

Compared with `CC(C)(C)CC(=O)Nc1nc2ccc(F)cn2c1-c1ccc(C#N)c(F)c1` [Compound 197, N-(3-(4-cyano-3-fluorophenyl)-6-fluoroimidazo[1,2-a]pyridin-2-yl)-3,3-dimethylbutanamide], `Cc1ccc(-c2c(NC(=O)CC(C)(C)C)nc3ccc(F)cn23)cc1F` [Compound 201, N-(6-fluoro-3-(3-fluoro-4-methylphenyl)imidazo[1,2-a]pyridin-2-yl)-3,3-dimethylbutanamide] is lower in EC50: 0.5 to 3 µM for the first, < 0.5 µM for the second. The second is the more potent here.

`COc1ccc(-c2c(NC(=O)CC(C)(C)C)nc3ccc(F)cn23)cc1C(F)(F)F` [Compound 200, N-(6-fluoro-3-(4-methoxy-3-(trifluoromethyl)phenyl)imidazo[1,2-a]pyridin-2-yl)-3,3-dimethylbutanamide] and `CC(C)(C)CC(=O)Nc1nc2cc(Cl)c(Cl)cn2c1-c1ccc(OC(F)(F)F)cc1` [Compound 216, N-(6,7-dichloro-3-(4-(trifluoromethoxy)phenyl)imidazo[1,2-a]pyridin-2-yl)-3,3-dimethylbutanamide] cannot be ordered by EC50: < 0.5 µM for the first, < 0.5 µM for the second.

Compared with `CC(C)(C)C(F)(F)C(=O)Nc1nc2ccc(F)cn2c1-c1ccc(C(F)(F)F)cc1` [Compound 202, 2,2-difluoro-N-(6-fluoro-3-(4-(trifluoromethyl)phenyl)imidazo[1,2-a]pyridin-2-yl)-3,3-dimethylbutanamide], `O=C(NCc1ccc(F)cc1)Nc1nc2ccc(F)cn2c1-c1ccc(C(F)(F)F)cc1` [Compound 214, 1-(6-fluoro-3-(4-(trifluoromethyl)phenyl)imidazo[1,2-a]pyridin-2-yl)-3-(4-fluorobenzyl)urea] is higher in EC50: < 0.5 µM for the first, 0.5 to 3 µM for the second. The first is the more potent here.

Compared with `O=C(Cc1ccc(F)cc1)Nc1nc2ccccn2c1-c1ccc(F)cc1` [Compound 203, 2-(4-fluorophenyl)-N-(3-(4-fluorophenyl)imidazo[1,2-a]pyridin-2-yl)acetamide], `O=C(Cc1ccc(F)cc1)Nc1nc2ccccn2c1-c1ccc(C(F)(F)F)cc1` [Compound 204, 2-(4-fluorophenyl)-N-(3-(4-(trifluoromethyl)phenyl)imidazo[1,2-a]pyridin-2-yl)acetamide] is lower in EC50: 0.5 to 3 µM for the first, < 0.5 µM for the second.

`O=C(Cc1ccc(F)cc1)Nc1nc2ccccn2c1-c1ccc(OC(F)(F)F)cc1` [Compound 205, 2-(4-fluorophenyl)-N-(3-(4-(trifluoromethoxy)phenyl)imidazo[1,2-a]pyridin-2-yl)acetamide] and `O=C(Cc1ccccc1)Nc1nc2ccc(F)cn2c1-c1ccc(OC(F)(F)F)cc1` [Compound 207, N-(6-fluoro-3-(4-(trifluoromethoxy)phenyl)imidazo[1,2-a]pyridin-2-yl)-2-phenylacetamide] cannot be ordered by EC50: < 0.5 µM for the first, < 0.5 µM for the second.

`CC(CC(=O)Nc1nc2ccc(F)cn2c1-c1ccc(F)c(F)c1)C(F)(F)F` (stereo not shown) [Compound 209, N-(3-(3,4-difluorophenyl)-6-fluoroimidazo[1,2-a]pyridin-2-yl)-4,4,4-trifluoro-3-methylbutanamide] and `O=C(Cc1ccccc1)Nc1nc2ccc(F)cn2c1-c1ccc(F)c(F)c1` [Compound 211, N-(3-(3,4-difluorophenyl)-6-fluoroimidazo[1,2-a]pyridin-2-yl)-2-phenylacetamide] cannot be ordered by EC50: < 0.5 µM for the first, < 0.5 µM for the second.

`O=C(NCCc1ccc(F)cc1)Nc1nc2ccc(F)cn2c1-c1ccc(C(F)(F)F)cc1` [Compound 213, 1-(6-fluoro-3-(4-(trifluoromethyl)phenyl)imidazo[1,2-a]pyridin-2-yl)-3-(4-fluorophenethyl)urea] was tested, and the EC50 was 3 to 10 µM.
